# According to US4994473A, “Pyridyl containing insecticides” (ICI Americas Inc., priority 1988, dated 1991):
# How the values were obtained:
# Aphis fabae = assay: Black bean aphid spray test on nasturtium plants, mortality after 48 hours; assay type: in vivo, Black Bean Aphid Aphis fabae (Scop.); settings: mixed ages, percent of test compound in sprayed solution
# Description: (§1) The compounds in Table I above were tested for insecticidal activity using the following testing procedures. LC50 values, based on the results of these tests and calculated according to dosage-mortality curves, are expressed in Table II.
# Black Bean Aphid Aphis fabae (Scop.)
# Nasturtium plants (Tropaeolum sp.) approximately 5 cm tall, were transplanted into sandy loam soil in small cups and infested with 25-50 black bean aphids of mixed ages. Twenty-four hours later they were sprayed to the point of runoff with 50--50 acetone-water solutions of the test compound. Treated plants were held in the greenhouse and mortality was recorded after 48 hours. Test concentrations ranged from 0.05% downward. The LC-50 value is expressed below in Table II under the heading "BA" in terms of percent of the test compound in the sprayed solution.
# [1] = tested on: Diabrotica undecimpunctata undecimpunctata; assay: Western spotted cucumber beetle larvae soil test; assay type: in vivo; settings: Diabrotica eggs/larvae; ppm of the test compound in the soil
# Description: as §1
# Western Spotted Cucumber Beetle Larvae Diabrotica undecimpunctata undecimpunctata (Mannherheim)
# Ten grams of moist potting soil was placed in a plastic cup. The test compound was dissolved in acetone. A 0.05 ml aliquot of the test sample, diluted to the desired concentration, was added to the soil. The cup was capped and the soil was mixed on a vortex mixer for approximately 15 seconds. An indentation was made on the surface of the soil and approximately 50 Diabrotica eggs were added. The eggs were covered with soil and maintained at room temperature (approximately 70° F. or 21° C.). Four days later a section of Romaine lettuce (Latuca sativa) leaf was placed in the treated cups. One week later the cups were examined for live larvae. Test concentrations ranged from 25 ppm downward. The LC-50 value is expressed below in Table II under the heading "Diabrotica" in terms of ppm of the test compound in the soil.
# Heliothis virescens = assay: Tobacco budworm egg dip test; assay type: in vivo, Tobacco Budworm Heliothis virescens (Fabricius); settings: 2-day old eggs (TBW-E), percent of test compound in solution
# Description: as §1
# Tobacco Budworm Heliothis virescens (Fabricius)
# Eggs: Paper towel patches of 2-day old eggs of the tobacco budworm were dipped in acetone solutions of the test compound and placed in petri dishes containing a portion of larval rearing medium. Treated eggs were maintained at 78° F. and mortality was recorded after all control eggs had hatched and the young larvae were feeding on the media. Test concentrations ranged from 0.1% downward. The LC-50 value is expressed below in Table II under the heading "TBW-E" in terms of percent of the test compound in the solution.
# Tetranychus urticae = assay: Two-spotted mite acaricidal test on pinto bean plants; assay type: in vivo, two-spotted mite Tetranychus urticae (Koch); settings: percent concentration in solution, 5-7 days; for LC50 2-SM A: adults; for LC50 2-SM E: eggs
# Text: Acaricidal Evaluation Test
# The two-spotted mite (2SM) [Tetranychus urticae (Koch)]was employed in tests for miticides. The test procedure was as follows:
# Pinto bean plants (Phaseolus sp.) approximately 10 cm tall, were transplanted into sandy loam soil in small cups and thoroughly infested with two-spotted mites of mixed ages and sexes. Twenty-four hours later the infested plants were inverted and dipped for 2-3 seconds in 50--50 acetone-water solutions of the test compound. Treated plants were held in the greenhouse, and 5-7 days later mortality was determined for both adult mites and the nymphs hatching from eggs which were on the plants at the time of treatment. Test concentrations ranged from 0.05% downward. The LC-50 value is expressed below in Table II under the headings "2SM-A" (i.e., adults) and "2SM-E" (i.e. eggs) in terms of percent concentration of the test compound in the solution.
# Trichoplusia ni = assay: Cabbage looper larvae leaf-dip test; assay type: in vivo, Cabbage Looper Trichoplusia ni (Hubner); settings: second instar larvae, percent of test compound in solution, 3-5 days
# Description: as §1
# Cabbage Looper Trichoplusia ni (Hubner)
# The test compound was diluted in a 50--50 acetone-water solution Cotyledons of hyzini squash (Calabacita abobrinha), approximately 1×1.5 inches, were immersed in the test solutions for 2-3 seconds and placed on a wire screen to dry. The dried leaves were p1aced in petri dishes containing a moistened piece of filter paper and infested with 5 secondinstar cabbage looper larvae. The dishes were placed in a high humidity chamber. Mortality of the larvae was recorded 3-5 days later. Test concentrations ranged from 0.1% downward. The LC-50 value is expressed below in Table II under the heading "CL" in terms of percent of the test compound in solution.
# Musca domestica = assay: Housefly contact test, mortality after 48 hours; assay type: in vivo, Housefly Musca domestica; settings: μg of the test compound per 25 female flies
# Description: as §1
# The test compound was diluted in acetone and aliquots pipetted onto the bottom of aluminum dishes. To ensure even spreading of the chemical on the bottom of the dishes, 1 ml of acetone containing 0.01% peanut oil was also added to each dish. After all solvents had evaporated, the dishes were placed in circular cardboard cages containing 25 female houseflies, 1-2 days old. The cages were covered on the bottom with cellophane and on the top with tulle netting, and each contained a sugar-water saturated cotton plug for maintenance of the flies. Mortality was recorded after 48 hours. Test levels ranged from 100 μg/25 female houseflies downward. The LC-50 value is expressed below in Table II under the heading "HF", in terms of μg of the test compound per 25 female flies.
structure (smiles),measurement,setting,value
CC(C)C(=Nc1ccc(OCC(F)(F)F)nc1)OCc1cccc(Oc2ccccc2)n1 [Compound 45],LC50 BA,Aphis fabae,0.001%
same,LC50 Diabrotica,[1],> 25 ppm
same,LC50 TBW,Heliothis virescens,> 0.1%
same,LC50 2-SM A,Tetranychus urticae,0.03%
same,LC50 2-SM E,Tetranychus urticae,0.03%
same,LC50 CL,Trichoplusia ni,0.00075%
same,LC50 HF,Musca domestica,< 100 µg
"CC(C)C(=Nc1ccc(Cl)nc1)OCc1cccc(Oc2ccccc2)c1 [Compound 1, N-(6-Chloro-3-pyridyl)-0-(3-phenoxybenzyl)isobutyrylimidate]",LC50 BA,Aphis fabae,0.001%
same,LC50 Diabrotica,[1],> 25 ppm
same,LC50 TBW,Heliothis virescens,0.04%
same,LC50 2-SM A,Tetranychus urticae,> 0.05%
same,LC50 2-SM E,Tetranychus urticae,> 0.05%
same,LC50 CL,Trichoplusia ni,0.005%
same,LC50 HF,Musca domestica,5.5 µg
C=C(C)C(=Nc1ccc(Cl)nc1)OCc1ccc(F)c(Oc2ccccc2)c1 [Compound 49],LC50 BA,Aphis fabae,< 0.05%
same,LC50 Diabrotica,[1],> 25 ppm
same,LC50 TBW,Heliothis virescens,0.1%
same,LC50 2-SM A,Tetranychus urticae,> 0.05%
same,LC50 2-SM E,Tetranychus urticae,> 0.05%
same,LC50 CL,Trichoplusia ni,< 0.1%
same,LC50 HF,Musca domestica,< 100 µg
CC(C)C(=Nc1ccc(Cl)nc1)OCc1cccc(Oc2ccc(Cl)cc2)c1 [Compound 30],LC50 BA,Aphis fabae,> 0.05%
same,LC50 Diabrotica,[1],> 25 ppm
same,LC50 TBW,Heliothis virescens,0.1%
same,LC50 2-SM A,Tetranychus urticae,> 0.05%
same,LC50 2-SM E,Tetranychus urticae,> 0.05%
same,LC50 CL,Trichoplusia ni,0.0007%
same,LC50 HF,Musca domestica,15 µg
CC(C)C(=Nc1cncc(C(F)(F)F)c1)OCc1ccc(F)c(Oc2ccc(Cl)cc2)c1 [Compound 37],LC50 BA,Aphis fabae,> 0.05%
same,LC50 Diabrotica,[1],> 25 ppm
same,LC50 TBW,Heliothis virescens,> 0.1%
same,LC50 2-SM A,Tetranychus urticae,> 0.05%
same,LC50 2-SM E,Tetranychus urticae,> 0.05%
same,LC50 CL,Trichoplusia ni,> 0.1%
same,LC50 HF,Musca domestica,40 µg
CC(C)C(=Nc1ccc(Cl)nc1)SCc1cccc(Oc2ccc(F)cc2)c1 [Compound 29],LC50 BA,Aphis fabae,> 0.05%
same,LC50 Diabrotica,[1],> 25 ppm
same,LC50 TBW,Heliothis virescens,> 0.1%
same,LC50 2-SM A,Tetranychus urticae,> 0.05%
same,LC50 2-SM E,Tetranychus urticae,> 0.05%
same,LC50 CL,Trichoplusia ni,0.025%
same,LC50 HF,Musca domestica,> 100 µg
CC(C)C(=Nc1ccc(OCC(F)(F)F)nc1)OCc1cccc(Oc2ccc(F)cc2)c1 [Compound 43],LC50 BA,Aphis fabae,0.0003%
same,LC50 Diabrotica,[1],> 25 ppm
same,LC50 TBW,Heliothis virescens,0.02%
same,LC50 2-SM A,Tetranychus urticae,0.006%
same,LC50 2-SM E,Tetranychus urticae,0.006%
same,LC50 CL,Trichoplusia ni,0.00015%
same,LC50 HF,Musca domestica,> 100 µg
CC(C)C(=Nc1ccc(OCC(F)(F)F)nc1)OCc1cccc(Oc2ccc(Cl)cc2)c1 [Compound 39],LC50 BA,Aphis fabae,0.001%
same,LC50 Diabrotica,[1],> 25 ppm
same,LC50 TBW,Heliothis virescens,0.02%
same,LC50 2-SM A,Tetranychus urticae,0.006%
same,LC50 2-SM E,Tetranychus urticae,0.006%
same,LC50 CL,Trichoplusia ni,> 0.1%
same,LC50 HF,Musca domestica,> 100 µg
COc1ccc(N=C(OCc2cccc(Oc3ccccc3)c2)C2CC2)cn1 [Compound 15],LC50 BA,Aphis fabae,> 0.05%
same,LC50 Diabrotica,[1],> 25 ppm
same,LC50 TBW,Heliothis virescens,> 0.1%
same,LC50 2-SM A,Tetranychus urticae,> 0.05%
same,LC50 2-SM E,Tetranychus urticae,> 0.05%
same,LC50 CL,Trichoplusia ni,0.05%
same,LC50 HF,Musca domestica,58 µg
C=C(C)C(=Nc1ccc(Cl)nc1)OCc1ccc(F)c(Oc2ccc(Cl)cc2)c1 [Compound 48],LC50 BA,Aphis fabae,< 0.05%
same,LC50 Diabrotica,[1],> 25 ppm
same,LC50 TBW,Heliothis virescens,< 0.1%
same,LC50 2-SM A,Tetranychus urticae,> 0.05%
same,LC50 2-SM E,Tetranychus urticae,> 0.05%
same,LC50 CL,Trichoplusia ni,< 0.1%
same,LC50 HF,Musca domestica,< 100 µg
CC(C)C(=Nc1ccc(OCC(F)(F)F)nc1)OCc1cccc(Oc2ccc(Cl)cc2)n1 [Compound 46],LC50 BA,Aphis fabae,0.0003%
same,LC50 Diabrotica,[1],> 25 ppm
same,LC50 TBW,Heliothis virescens,0.017%
same,LC50 2-SM A,Tetranychus urticae,0.006%
same,LC50 2-SM E,Tetranychus urticae,0.006%
same,LC50 CL,Trichoplusia ni,0.00027%
same,LC50 HF,Musca domestica,< 100 µg
COC(=O)c1ccc(N=C(OCc2cccc(Oc3ccccc3)c2)C(C)C)o1 [Compound 14],LC50 BA,Aphis fabae,> 0.05%
same,LC50 Diabrotica,[1],> 25 ppm
same,LC50 TBW,Heliothis virescens,> 0.1%
same,LC50 2-SM A,Tetranychus urticae,> 0.05%
same,LC50 2-SM E,Tetranychus urticae,> 0.05%
same,LC50 CL,Trichoplusia ni,0.01%
same,LC50 HF,Musca domestica,> 100 µg
CC(C)(Cl)C(=Nc1nnc(C(F)(F)F)s1)OCc1cccc(Oc2ccccc2)c1 [Compound 9],LC50 BA,Aphis fabae,> 0.05%
same,LC50 Diabrotica,[1],> 25 ppm
same,LC50 TBW,Heliothis virescens,> 0.1%
same,LC50 2-SM A,Tetranychus urticae,> 0.05%
same,LC50 2-SM E,Tetranychus urticae,> 0.05%
same,LC50 CL,Trichoplusia ni,0.035%
same,LC50 HF,Musca domestica,> 100 µg
CC(C)C(=Nc1ccc(C(F)(F)F)cn1)OCc1cccc(Oc2ccccc2)c1 [Compound 4],LC50 BA,Aphis fabae,0.05%
same,LC50 Diabrotica,[1],> 25 ppm
same,LC50 TBW,Heliothis virescens,> 0.1%
same,LC50 2-SM A,Tetranychus urticae,> 0.05%
same,LC50 2-SM E,Tetranychus urticae,> 0.05%
same,LC50 CL,Trichoplusia ni,0.008%
same,LC50 HF,Musca domestica,42 µg
CC(C)C(=Nc1ccc(F)nc1)OCc1cccc(Oc2ccccc2)c1 [Compound 5],LC50 BA,Aphis fabae,0.003%
same,LC50 Diabrotica,[1],> 25 ppm
same,LC50 TBW,Heliothis virescens,0.09%
same,LC50 2-SM A,Tetranychus urticae,> 0.05%
same,LC50 2-SM E,Tetranychus urticae,> 0.05%
same,LC50 CL,Trichoplusia ni,0.008%
same,LC50 HF,Musca domestica,8 µg
CC(C)C(=Nc1c(F)c(F)nc(F)c1F)OCc1cccc(Oc2ccccc2)c1 [Compound 6],LC50 BA,Aphis fabae,> 0.05%
same,LC50 Diabrotica,[1],> 25 ppm
same,LC50 TBW,Heliothis virescens,> 0.1%
same,LC50 2-SM A,Tetranychus urticae,> 0.05%
same,LC50 2-SM E,Tetranychus urticae,> 0.05%
same,LC50 CL,Trichoplusia ni,0.004%
same,LC50 HF,Musca domestica,> 100 µg
Cc1cc(N=C(OCc2cccc(Oc3ccccc3)c2)C(C)C)no1 [Compound 8],LC50 BA,Aphis fabae,> 0.05%
same,LC50 Diabrotica,[1],> 25 ppm
same,LC50 TBW,Heliothis virescens,> 0.1%
same,LC50 2-SM A,Tetranychus urticae,> 0.05%
same,LC50 2-SM E,Tetranychus urticae,> 0.05%
same,LC50 CL,Trichoplusia ni,0.1%
same,LC50 HF,Musca domestica,> 100 µg
Clc1ccc(N=C(OCc2cccc(Oc3ccccc3)c2)C2CC2)cn1 [Compound 7],LC50 BA,Aphis fabae,> 0.05%
same,LC50 Diabrotica,[1],> 25 ppm
same,LC50 TBW,Heliothis virescens,> 0.1%
same,LC50 2-SM A,Tetranychus urticae,> 0.05%
same,LC50 2-SM E,Tetranychus urticae,> 0.05%
same,LC50 CL,Trichoplusia ni,0.022%
same,LC50 HF,Musca domestica,> 100 µg
CSc1ccc(N=C(OCc2cccc(Oc3ccccc3)c2)C(C)C)cn1 [Compound 38],LC50 BA,Aphis fabae,0.005%
same,LC50 Diabrotica,[1],> 25 ppm
same,LC50 TBW,Heliothis virescens,> 0.1%
same,LC50 2-SM A,Tetranychus urticae,> 0.05%
same,LC50 2-SM E,Tetranychus urticae,> 0.05%
same,LC50 CL,Trichoplusia ni,> 0.1%
same,LC50 HF,Musca domestica,< 100 µg
COc1ccc(N=C(OCc2cccc(Oc3ccccc3)c2)C(C)C)cn1 [Compound 3],LC50 BA,Aphis fabae,0.003%
same,LC50 Diabrotica,[1],> 25 ppm
same,LC50 TBW,Heliothis virescens,> 0.1%
same,LC50 2-SM A,Tetranychus urticae,> 0.05%
same,LC50 2-SM E,Tetranychus urticae,> 0.05%
same,LC50 CL,Trichoplusia ni,0.0075%
same,LC50 HF,Musca domestica,7 µg
CC(C)C(=Nc1ccc(OCC(F)(F)F)nc1)OCc1ccc(F)c(Oc2ccc(Cl)cc2)c1 [Compound 44],LC50 BA,Aphis fabae,0.0003%
same,LC50 Diabrotica,[1],> 25 ppm
same,LC50 TBW,Heliothis virescens,0.01%
same,LC50 2-SM A,Tetranychus urticae,0.001%
same,LC50 2-SM E,Tetranychus urticae,0.001%
same,LC50 CL,Trichoplusia ni,0.00017%
same,LC50 HF,Musca domestica,> 100 µg
